According to US4698329A, “New renin-inhibitory peptides and their use” (Sankyo Company, Limited, priority 1984, dated 1987):
Square brackets hold non-standard residues; d marks the D form. Peptide text beside a SMILES is read from it. * marks the point of attachment. 1Nal = N[C@@H](Cc1cccc2ccccc12)C(=O)O; Sta = CC(C)C[C@H](N)[C@@H](O)CC(=O)O; Cbz = O=C(OCc1ccccc1)*; NHBu = CCCCN*; NHNH2 = NN*

biological target: T1, human renin (Homo sapiens, UniProt P00797); assay: Inhibition of renin activity (human renin, sheep angiotensinogen); type: biochemical; conditions: concentration of test cpd. 1 × 10^-5 M, pH 7.3, 10 minutes at 37° C., mean of 3 or 4 experiments
T1 sequence (P00797 67-406): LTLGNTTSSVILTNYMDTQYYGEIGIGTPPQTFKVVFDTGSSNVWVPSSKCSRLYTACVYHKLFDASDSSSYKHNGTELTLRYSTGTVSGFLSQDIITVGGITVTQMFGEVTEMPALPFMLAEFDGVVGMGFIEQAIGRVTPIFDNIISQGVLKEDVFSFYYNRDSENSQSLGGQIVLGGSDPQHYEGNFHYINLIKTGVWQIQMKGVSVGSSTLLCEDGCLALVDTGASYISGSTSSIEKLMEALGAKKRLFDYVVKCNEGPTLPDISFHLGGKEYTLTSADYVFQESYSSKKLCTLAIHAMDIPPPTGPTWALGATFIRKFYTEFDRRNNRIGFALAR
Description: The ability of various compounds of the invention to inhibit the activity of renin was determined according to the following method, which follows essentially the procedure of Kokubu et al. [Hypertension, 5, 191-197 (1983)].
Specifically, each test compound was dissolved in 60% v/v aqueous ethanol. Human renin activity in the presence and absence of each compound was measured using sheep angiotensinogen. The total volume of 1 ml of assay mixture contained 0.1 mole/liter phosphate buffer (pH 7.3), human renin (equivalent to 0.5 ng angiotensin I per ml per minute), sheep angiotensinogen (equivalent to 200 ng angiotensin I), the indicated concentration of the test compound, 6% ethanol and angiotensinase inhibitors (10 mmole/liter sodium ethylenediaminetetraacetate and 3.4 mmole/liter 8-hydroxyquinoline). The mixture was allowed to react for 10 minutes at 37° C., and then the reaction was stopped by placing the reaction tube in a boiling water bath for 5 minutes. The mixture was then centrifuged and the supernatant (0.05-0.1 ml) was used to assay remaining angiotensin I.
An identical experiment was carried out, as a control, except that the test compound was omitted. From the values obtained were calculated the % inhibition of renin activity achieved by each test compound. The results are shown in the following Table, in which the compounds of the invention are identified by the numbers assigned to them in the foregoing list. The values given are the mean of 3 or 4 experiments.

Point of comparison: `CCOC(=O)C[C@H](O)[C@H](CC(C)C)NC(=O)[C@H](Cc1c[nH]cn1)NC(=O)[C@H](Cc1cccc2ccccc12)NC(=O)OCc1ccccc1` [Compound 5, ethyl 4(S)-[N-benzyloxycarbonyl-3-(1-naphthyl)-L-alanyl-L-histidyl]amino-3(S)-hydroxy-6-methylheptanoate] (Cbz-[1Nal]-His-[Sta]-OEt), “% Inhibition (human renin)” value 79%. Against it:
- CC(C)C[C@H](NC(=O)[C@H](Cc1c[nH]cn1)NC(=O)[C@H](Cc1cccc2ccccc12)NC(=O)OCc1ccccc1)[C@@H](O)CC(=O)O [Compound 3, 4(S)-[N-benzyloxycarbonyl-3-(1-naphthyl)-L-alanyl-L-histidyl]amino-3(S)-hydroxy-6-methylheptanoic acid] (Cbz-[1Nal]-His-[Sta]-OH) — lower, 72%
- CC(C)C[C@H](NC(=O)[C@H](Cc1c[nH]cn1)NC(=O)[C@H](Cc1cccc2ccccc12)NC(=O)OCc1ccccc1)[C@@H](O)CC(=O)N1CCC(c2ccccc2)CC1 [Compound 36, 1-{4(S)-[N-benzyloxycarbonyl-3-(1-naphthyl)-L-alanyl-L-histidyl]amino-3(S)-hydroxy-6-methylheptanoyl}-4-phenylpiperidine] — higher, 84%
- CC(C)C[C@H](NC(=O)[C@H](Cc1c[nH]cn1)NC(=O)[C@H](Cc1cccc2ccccc12)NC(=O)OCc1ccccc1)[C@@H](O)CC(=O)NN [Compound 38, 4(S)-[N-benzyloxycarbonyl-3-(1-naphthyl)-L-alanyl-L-histidyl]amino-3(S)-hydroxy-6-methylheptanoic acid hydrazide] (Cbz-[1Nal]-His-[Sta]-NHNH2) — higher, 89%
- CC(C)C[C@H](NC(=O)[C@H](Cc1c[nH]cn1)NC(=O)[C@H](Cc1cccc2ccccc12)NC(=O)OCc1ccccc1)[C@@H](O)CC(=O)NNC(=O)CCCc1ccccc1 [Compound 39, N^1 -{4(S)-[N-benzyloxycarbonyl-3-(1-naphthyl)-L-alanyl-L-histidyl]amino-3(S)-hydroxy-6-methylheptanoyl}-N^2-(4-phenylbutyryl)hydrazine] — higher, 84%
- COC(=O)[C@@H](O)[C@H](CC(C)C)NC(=O)[C@H](Cc1c[nH]cn1)NC(=O)[C@H](Cc1cccc2ccccc12)NC(=O)OCc1ccccc1 [Compound 62, methyl 3(S)-[N-benzyloxycarbonyl-3-(1-naphthyl)-L-alanyl-L-histidyl]amino-2(S)-hydroxy-5-methylhexanoate] — lower, 53%
- CCCCNC(=O)C[C@H](O)[C@H](CC(C)C)NC(=O)[C@H](Cc1c[nH]cn1)NC(=O)[C@H](Cc1cccc2ccccc12)NC(=O)OCc1ccccc1 [Compound 64, 4(S)-[N-benzyloxycarbonyl-3-(1-naphthyl)-L-alanyl-L-histidyl]amino-N-butyl-3(S)-hydroxy-6-methylheptanamide] (Cbz-[1Nal]-His-[Sta]-NHBu) — higher, 95%
- CC[C@H](C)CNC(=O)C[C@H](O)[C@H](CC(C)C)NC(=O)[C@H](Cc1c[nH]cn1)NC(=O)[C@H](Cc1cccc2ccccc12)NC(=O)OCc1ccccc1 [Compound 65, 4(S)-[N-benzyloxycarbonyl-3-(1-naphthyl)-L-alanyl-L-histidyl]amino-3(S)-hydroxy-6-methyl-N-[S-(-)-2-methylbutyl]heptanamide] — higher, 99%
- CCNC(=O)C[C@H](O)[C@H](CC(C)C)NC(=O)[C@H](Cc1c[nH]cn1)NC(=O)[C@H](Cc1cccc2ccccc12)NC(=O)OCc1ccccc1 [Compound 66, 4(S)-[N-benzyloxycarbonyl-3-(1-naphthyl)-L-alanyl-L-histidyl]amino-N-ethyl-3(S)-hydroxy-6-methylheptanamide] (Cbz-[1Nal]-His-[Sta]-NHEt) — higher, 96%
- CC[C@H](C)[C@@H](CO)NC(=O)C[C@H](O)[C@H](CC(C)C)NC(=O)[C@H](Cc1c[nH]cn1)NC(=O)[C@H](Cc1cccc2ccccc12)NC(=O)OCc1ccccc1 [Compound 67, N-{4(S)-[N-benzyloxycarbonyl-3-(1-naphthyl)-L-alanyl-L-histidyl]amino-3(S)-hydroxy-6-methylheptanoyl}-L-isoleucinol] — higher, 98%
- CCC(C)CNC(=O)C[C@H](O)[C@H](CC(C)C)NC(=O)[C@@H](Cc1c[nH]cn1)NC(=O)[C@H](Cc1cccc2ccccc12)NC(=O)OCc1ccccc1 (stereo partly drawn) [Compound 93, 4(S)-[N-benzyloxycarbonyl-3-(1-naphthyl)-L-alanyl-D-histidyl]amino-3(S)-hydroxy-6-methyl-N-(2-methylbutyl)heptanamide] — higher, 99%

same assay, conditions: concentration of test cpd. 1 × 10^-6 M, pH 7.3, 10 minutes at 37° C., mean of 3 or 4 experiments

Point of comparison: `CCC(C)CNC(=O)C[C@H](O)[C@H](CC(C)C)NC(=O)[C@H](CC(C)C)NC(=O)[C@H](Cc1cccc2ccccc12)NC(=O)OCc1ccccc1` (stereo partly drawn) [Compound 207, N-(2-methylbutyl)-4(S)-[N-benzyloxycarbonyl-3-(1-naphthyl)-L-alanyl-L-leucyl]amino-3(S)-hydroxy-6-methylheptanamide], “% Inhibition (human renin)” value 98.4%. Against it:
- CCC(C)CNC(=O)C[C@H](O)[C@H](CC(C)C)NC(=O)C(Cc1cscn1)NC(=O)[C@H](Cc1cccc2ccccc12)NC(=O)OCc1ccccc1 (mixture of isomers) [Compound 238, N-(2-methylbutyl)-4(S)-[N-benzyloxycarbonyl-3-(1-naphthyl)-L-alanyl-3-(1,3-thiazol-4-yl)-DL-alanyl]amino-3(S)-hydroxy-6-methylheptanamide] — lower, 98.2%
- CC[C@H](C)[C@@H](CO)NC(=O)C[C@H](O)[C@H](CC(C)C)NC(=O)[C@H](CC(C)C)NC(=O)[C@H](Cc1cccc2ccccc12)NC(=O)OCc1ccccc1 [Compound 208, N-{4(S)-[N-benzyloxycarbonyl-3-(1-naphthyl)-L-alanyl-L-leucyl]amino-3(S)-hydroxy-6-methylheptanoyl}-L-isoleucinol] — higher, 99.1%
